Experimental data reported in ChEMBL document CHEMBL4411314, “Evaluation of Amides, Carbamates, Sulfonamides, and Ureas of 4-Prop-2-ynylidenecycloalkylamine as Potent, Selective, and Bioavailable Negative Allosteric Modulators of Metabotropic Glutamate Receptor 5” (J Med Chem, 2019).

Species on record: Rattus norvegicus
Assay: Increase in threshold of bladder-filling volume in rat
Format: functional
Conditions: read-out: MED

For `Cc1nc(C#Cc2ccnc(Cl)c2)c(C)n1-c1ccc(F)cc1` [BASIMGLURANT], the minimal effective dose was 0.03 mg/kg.
